According to the supplement of paper PMC10307832:

How the values were obtained:
Assay in all cases: relative viability (nuclei count vs DMSO), 5 days (fraction); higher = more cells survive
[1] = compound: C1CC2=C(C1)C=C(C=C2)OC3=NC(=C4C(=N3)N(C=N4)CC5=CC=C(C=C5)C6=CC=CC=C6)N[C@@H](CC7=CC=CC=C7)CO [QS11] + N=C(N)NC(=N)NCCc1ccccc1 [Phenformin] (partner 250 µM)
How it was run: (§1)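 Relative viability equals treated-well nuclei counts divided by vehicle-well nuclei counts. Counts came from 4× images of lung cancer cell lines grown in 1536-well plates for 5 days after pin-tool dosing on the day after seeding. Dosing used one drug alone or a fixed anchor-drug dose plus five library-drug doses (not always all listed) in √10 steps, and values are medians of duplicate plates.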

[2] = compound: C1CC2=C(C1)C=C(C=C2)OC3=NC(=C4C(=N3)N(C=N4)CC5=CC=C(C=C5)C6=CC=CC=C6)N[C@@H](CC7=CC=CC=C7)CO [QS11] + CC1(C)CCC(c2ccc(Cl)cc2)=C(CN2CCN(c3ccc(C(=O)NS(=O)(=O)c4ccc(N[C@H](CCN5CCOCC5)CSc5ccccc5)c(S(=O)(=O)C(F)(F)F)c4)cc3)CC2)C1 [Navitoclax] (partner 0.5 µM)
How it was run: as §1

[3] = compound: CC1=C(C=C(C=C1)NC(=O)C2=CC(=CC=C2)C(C)(C)C#N)NC3=CC4=C(C=C3)N=CN(C4=O)C [AZ628] + CCNC(=O)c1noc(-c2cc(C(C)C)c(O)cc2O)c1-c1ccc(CN2CCOCC2)cc1 [Luminespib] (partner 0.01 µM)
How it was run: as §1

[4] = compound: CC1=C(C=C(C=C1)NC(=O)C2=CC(=CC=C2)C(C)(C)C#N)NC3=CC4=C(C=C3)N=CN(C4=O)C [AZ628] + CC(=O)Nc1cccc(-n2c(=O)n(C3CC3)c(=O)c3c(Nc4ccc(I)cc4F)n(C)c(=O)c(C)c32)c1 [Trametinib] (partner 0.02 µM)
How it was run: as §1

NCI-H2023
relative viability ([1]; first compound 0.08 µM): 0.304
relative viability ([1]; first compound 0.253 µM): 0.473
relative viability ([1]; first compound 0.8 µM): 0.411
relative viability ([1]; first compound 2.53 µM): 0.457
relative viability ([1]; first compound 8 µM): 0.459
relative viability ([2]; first compound 0.08 µM): 1.02
relative viability ([2]; first compound 0.253 µM): 1.02
relative viability ([2]; first compound 0.8 µM): 0.925
relative viability ([2]; first compound 2.53 µM): 1.16
relative viability ([2]; first compound 8 µM): 1.12
relative viability ([3]; first compound 0.08 µM): 0.818
relative viability ([3]; first compound 0.253 µM): 0.76
relative viability ([3]; first compound 0.8 µM): 0.666
relative viability ([3]; first compound 2.53 µM): 0.65
relative viability ([3]; first compound 8 µM): 0.653
relative viability ([4]; first compound 0.08 µM): 0.402
relative viability ([4]; first compound 0.253 µM): 0.338
relative viability ([4]; first compound 0.8 µM): 0.203
relative viability ([4]; first compound 2.53 µM): 0.237
relative viability ([4]; first compound 8 µM): 0.183

PC-3 [JPC-3]
relative viability ([1]; first compound 0.08 µM): 0.446
relative viability ([1]; first compound 0.253 µM): 0.476
relative viability ([1]; first compound 0.8 µM): 0.461
relative viability ([1]; first compound 2.53 µM): 0.489
relative viability ([1]; first compound 8 µM): 0.431
relative viability ([2]; first compound 0.08 µM): 0.738
relative viability ([2]; first compound 0.253 µM): 0.884
relative viability ([2]; first compound 0.8 µM): 0.771
relative viability ([2]; first compound 2.53 µM): 0.84
relative viability ([2]; first compound 8 µM): 0.938
relative viability ([3]; first compound 0.08 µM): 0.628
relative viability ([3]; first compound 0.253 µM): 0.67
relative viability ([3]; first compound 0.8 µM): 0.866
relative viability ([3]; first compound 2.53 µM): 0.675
relative viability ([3]; first compound 8 µM): 0.71
relative viability ([4]; first compound 0.08 µM): 0.685
relative viability ([4]; first compound 0.253 µM): 0.579
relative viability ([4]; first compound 0.8 µM): 0.647
relative viability ([4]; first compound 2.53 µM): 0.574
relative viability ([4]; first compound 8 µM): 0.386

LXF-289
relative viability ([1]; first compound 0.08 µM): 0.468
relative viability ([1]; first compound 0.253 µM): 0.509
relative viability ([1]; first compound 0.8 µM): 0.486
relative viability ([1]; first compound 2.53 µM): 0.495
relative viability ([1]; first compound 8 µM): 0.541
relative viability ([2]; first compound 0.08 µM): 0.98
relative viability ([2]; first compound 0.253 µM): 0.948
relative viability ([2]; first compound 0.8 µM): 0.715
relative viability ([2]; first compound 2.53 µM): 0.859
relative viability ([2]; first compound 8 µM): 0.619
relative viability ([3]; first compound 0.08 µM): 0.672
relative viability ([3]; first compound 0.253 µM): 0.67
relative viability ([3]; first compound 0.8 µM): 0.681
relative viability ([3]; first compound 2.53 µM): 0.653
relative viability ([3]; first compound 8 µM): 0.544
relative viability ([4]; first compound 0.08 µM): 0.603
relative viability ([4]; first compound 0.253 µM): 0.477
relative viability ([4]; first compound 0.8 µM): 0.472
relative viability ([4]; first compound 2.53 µM): 0.525
relative viability ([4]; first compound 8 µM): 0.38

NCI-H1437
relative viability ([1]; first compound 0.08 µM): 0.302
relative viability ([1]; first compound 0.253 µM): 0.225
relative viability ([1]; first compound 0.8 µM): 0.285
relative viability ([1]; first compound 2.53 µM): 0.334
relative viability ([1]; first compound 8 µM): 0.283
relative viability ([2]; first compound 0.08 µM): 1.12
relative viability ([2]; first compound 0.253 µM): 1.22
relative viability ([2]; first compound 0.8 µM): 0.718
relative viability ([2]; first compound 2.53 µM): 0.943
relative viability ([2]; first compound 8 µM): 0.936
relative viability ([3]; first compound 0.08 µM): 1.23
relative viability ([3]; first compound 0.253 µM): 1.06
relative viability ([3]; first compound 0.8 µM): 1.09
relative viability ([3]; first compound 2.53 µM): 1.16
relative viability ([3]; first compound 8 µM): 1.14
relative viability ([4]; first compound 0.08 µM): 0.494
relative viability ([4]; first compound 0.253 µM): 0.549
relative viability ([4]; first compound 0.8 µM): 0.471
relative viability ([4]; first compound 2.53 µM): 0.557
relative viability ([4]; first compound 8 µM): 0.566

NCI-H838
relative viability ([1]; first compound 0.08 µM): 0.629
relative viability ([1]; first compound 0.253 µM): 0.468
relative viability ([1]; first compound 0.8 µM): 0.519
relative viability ([1]; first compound 2.53 µM): 0.517
relative viability ([1]; first compound 8 µM): 0.531
relative viability ([2]; first compound 0.08 µM): 1.11
relative viability ([2]; first compound 0.253 µM): 1.1
relative viability ([2]; first compound 0.8 µM): 0.755
relative viability ([2]; first compound 2.53 µM): 1.2
relative viability ([2]; first compound 8 µM): 1.02
relative viability ([3]; first compound 0.08 µM): 0.305
relative viability ([3]; first compound 0.253 µM): 0.318
relative viability ([3]; first compound 0.8 µM): 0.336
relative viability ([3]; first compound 2.53 µM): 0.386
relative viability ([3]; first compound 8 µM): 0.246
relative viability ([4]; first compound 0.08 µM): 0.491
relative viability ([4]; first compound 0.253 µM): 0.466
relative viability ([4]; first compound 0.8 µM): 0.486
relative viability ([4]; first compound 2.53 µM): 0.477
relative viability ([4]; first compound 8 µM): 0.556

LK-2
relative viability ([1]; first compound 0.08 µM): 0.243
relative viability ([1]; first compound 0.253 µM): 0.76
relative viability ([1]; first compound 0.8 µM): 0.524
relative viability ([1]; first compound 2.53 µM): 0.426
relative viability ([1]; first compound 8 µM): 0.411
relative viability ([2]; first compound 0.08 µM): 0.763
relative viability ([2]; first compound 0.253 µM): 0.888
relative viability ([2]; first compound 0.8 µM): 0.975
relative viability ([2]; first compound 2.53 µM): 0.762
relative viability ([2]; first compound 8 µM): 1.11
relative viability ([3]; first compound 0.08 µM): 0.224
relative viability ([3]; first compound 0.253 µM): 0.205
relative viability ([3]; first compound 0.8 µM): 0.206
relative viability ([3]; first compound 2.53 µM): 0.187
relative viability ([3]; first compound 8 µM): 0.16
relative viability ([4]; first compound 0.08 µM): 0.332
relative viability ([4]; first compound 0.253 µM): 0.468
relative viability ([4]; first compound 0.8 µM): 0.251
relative viability ([4]; first compound 2.53 µM): 0.27
relative viability ([4]; first compound 8 µM): 0.301

NCI-H520
relative viability ([1]; first compound 0.08 µM): 0.476
relative viability ([1]; first compound 0.253 µM): 0.687
relative viability ([1]; first compound 0.8 µM): 0.607
relative viability ([1]; first compound 2.53 µM): 0.489
relative viability ([1]; first compound 8 µM): 0.574
relative viability ([2]; first compound 0.253 µM): 1.06
relative viability ([2]; first compound 0.8 µM): 1.23
relative viability ([2]; first compound 2.53 µM): 1.22
relative viability ([2]; first compound 8 µM): 1.14
relative viability ([3]; first compound 0.08 µM): 0.21
relative viability ([3]; first compound 0.253 µM): 0.219
relative viability ([3]; first compound 0.8 µM): 0.209
relative viability ([3]; first compound 2.53 µM): 0.219
relative viability ([3]; first compound 8 µM): 0.203
relative viability ([4]; first compound 0.08 µM): 0.469
relative viability ([4]; first compound 0.253 µM): 0.459
relative viability ([4]; first compound 0.8 µM): 0.273
relative viability ([4]; first compound 2.53 µM): 0.23
relative viability ([4]; first compound 8 µM): 0.16

H3255
relative viability ([1]; first compound 0.08 µM): 0.341
relative viability ([1]; first compound 0.253 µM): 0.351
relative viability ([1]; first compound 2.53 µM): 0.418
relative viability ([1]; first compound 8 µM): 0.363
relative viability ([2]; first compound 0.08 µM): 0.552
relative viability ([2]; first compound 0.253 µM): 0.587
relative viability ([2]; first compound 2.53 µM): 0.55
relative viability ([2]; first compound 8 µM): 0.704
relative viability ([3]; first compound 0.08 µM): 1.03
relative viability ([3]; first compound 0.253 µM): 0.891
relative viability ([3]; first compound 0.8 µM): 0.929
relative viability ([3]; first compound 2.53 µM): 1
relative viability ([3]; first compound 8 µM): 0.556
relative viability ([4]; first compound 0.08 µM): 0.525
relative viability ([4]; first compound 0.253 µM): 0.413
relative viability ([4]; first compound 0.8 µM): 0.384
relative viability ([4]; first compound 2.53 µM): 0.401
relative viability ([4]; first compound 8 µM): 0.365
